According to US20240199647A1, “ANTI-VIRAL COMPOUNDS” (Aligos Therapeutics, Inc., priority 2022, published 2024):
Read-outs that look alike come from different tables or passages of the source.

What was measured:
SARS-Cov-2 3CLpro = SARS-Cov-2 3CLpro (Severe acute respiratory syndrome coronavirus 2, UniProt P0DTD1); test: biochemical; settings: Table A, class symbols, read-out: SARS-Cov-2 (IC50)
[1] = tested on: human beta-coronavirus OC43; test: OC43 Coronavirus Assay in HeLa cells (antiviral, cytopathic effect, cell-titer-glo); assay type: cell-based; settings: Betacoronavirus 1, OC43, HeLa, Table B, OC43 coronavirus in HeLa cells, read-out: EC50
[2] = tested on: SARS-CoV-2 B.1.1.7 lineage; test: microbe, parasite or virus in culture; assay type: cell-based; settings: Severe acute respiratory syndrome coronavirus 2, Table C, SARS-CoV-2 B.1.1.7 in A549-dual_ACE2_TMPRSS2 cells, read-out: A549-dual_ACE2_TMPRSS2 (EC50)
in vitro = settings: human
[3] = Cytotoxicity in HeLa cells without addition of OC43 virus (in parallel); settings: human, HeLa cells, without OC43 virus

Row | SMILES | IC50 (SARS-Cov-2 3CLpro) | EC50 ([1]; class symbols) | EC50 ([2]; cells given as a bound) | CC50 (in vitro) | CC50 at 6 days [3] | EC50 ([2]; class symbols) | EC50 ([1]; cells given as a bound)
1 | CN(C(=O)C(=O)Nc1ccc(F)cc1)[C@@H](CC1CC1)C(=O)N1C[C@@]2(C[C@H]1C#N)Oc1cccnc1NC2=O [Compound 226, N^1—((S)-1-((2R,5'S)-5′-cyano-3-oxo-3,4-dihydrospiro[pyrido[3,2-b][1,4]oxazine-2,3′-pyrrolidin]-1′-yl)-3-cyclopropyl-1-oxopropan-2-yl)-N^2-(4-fluorophenyl)-N^1-methyloxalamide] | 200 to 2000 nM | 1000 to 10000 nM | > 1000 nM | > 1000 nM | > 10000 nM | – | –
2 | Cc1ccc2c(n1)O[C@@]1(C[C@@H](C#N)N(C(=O)[C@H](CC3CC3)N(C)C(=O)[C@H](CC3CC3)NC(=O)C(F)(F)F)C1)C(=O)N2 [Compound 227, (S)—N—((S)-1-((3R,5'S)-5′-cyano-6-methyl-2-oxo-1,2-dihydrospiro[pyrido[2,3-b][1,4]oxazine-3,3′-pyrrolidin]-1′-yl)-3-cyclopropyl-1-oxopropan-2-yl)-3-cyclopropyl-N-methyl-2-(2,2,2-trifluoroacetamido)propanamide] | < 20 nM | < 100 nM | – | > 1000 nM | > 10000 nM | 100 to 1000 nM | –
3 | CN(C(=O)[C@H](CC1CC1)NC(=O)C(F)(F)F)[C@@H](CC1CC1)C(=O)N1C[C@@]2(C[C@H]1C#N)Oc1ccccc1C(C)(C)NC2=O [Compound 228] | 20 to 200 nM | 100 to 1000 nM | – | > 1000 nM | > 10000 nM | 100 to 1000 nM | –
4 | Cc1ccc2c(n1)NC(=O)[C@]1(C[C@@H](C#N)N(C(=O)[C@H](CC3CC3)N(C)C(=O)[C@H](C)NC(=O)C(F)(F)F)C1)O2 [Compound 229, (S)—N—((S)-1-((2R,5'S)-5′-cyano-6-methyl-3-oxo-3,4-dihydrospiro[pyrido[3,2-b][1,4]oxazine-2,3′-pyrrolidin]-1′-yl)-3-cyclopropyl-1-oxopropan-2-yl)-N-methyl-2-(2,2,2-trifluoroacetamido)propanamide] | < 20 nM | < 100 nM | – | > 1000 nM | > 10000 nM | 100 to 1000 nM | –
5 | CC(C)C[C@@H](C(=O)N1C[C@@]2(C[C@H]1C#N)Oc1ccccc1NC2=O)N(C)C(=O)[C@H](C)NC(=O)C(F)(F)F [Example 1, (S)—N—((S)-1-((2R,5′S)-5′-cyano-3-oxo-3,4-dihydrospiro[benzo[b][1,4]oxazine-2,3′-pyrrolidin]-1′-yl)-4-methyl-1-oxopentan-2-yl)-N-methyl-2-(2,2,2-trifluoroacetamido)propanamide] | < 20 nM | < 100 nM | – | > 1000 nM | > 10000 nM | < 100 nM | –
6 | CC(C)C[C@@H](C(=O)N1C[C@@]2(C[C@H]1C#N)Oc1ccccc1NC2=O)N(C)C(=O)c1cc2c(F)cc(F)cc2[nH]1 [Example 2, N—((S)-1-((2R,5'S)-5′-cyano-3-oxo-3,4-dihydrospiro[benzo[b][1,4]oxazine-2,3′-pyrrolidin]-1′-yl)-4-methyl-1-oxopentan-2-yl)-4,6-difluoro-N-methyl-1H-indole-2-carboxamide] | < 20 nM | 100 to 1000 nM | – | > 1000 nM | > 10000 nM | 100 to 1000 nM | –
7 | CC(C)C[C@@H](C(=O)N1C[C@@]2(C[C@H]1C#N)Oc1ccncc1NC2=O)N(C)C(=O)c1cc2c(F)cc(F)cc2[nH]1 [Example 3, N—((S)-1-((2R,5'S)-5′-cyano-3-oxo-3,4-dihydrospiro[pyrido[4,3-b][1,4]oxazine-2,3′-pyrrolidin]-1′-yl)-4-methyl-1-oxopentan-2-yl)-4,6-difluoro-N-methyl-1H-indole-2-carboxamide] | 20 to 200 nM | – | – | > 1000 nM | > 10000 nM | 1000 to 10000 nM | > 1000 nM
8 | CC(C)C[C@@H](C(=O)N1C[C@@]2(C[C@H]1C#N)OCc1ccccc1NC2=O)N(C)C(=O)c1cc2c(F)cc(F)cc2[nH]1 [Example 4, N—((S)-1-((3R,5'S)-5′-cyano-2-oxo-1,5-dihydro-2H-spiro[benzo[e][1,4]oxazepine-3,3′-pyrrolidin]-1′-yl)-4-methyl-1-oxopentan-2-yl)-4,6-difluoro-N-methyl-1H-indole-2-carboxamide] | 20 to 200 nM | – | – | > 1000 nM | > 10000 nM | 1000 to 10000 nM | > 1000 nM
9 | CC(C)C[C@@H](C(=O)N1C[C@]2(C[C@H]1C#N)OC(=O)Nc1ccccc12)N(C)C(=O)c1cc2c(F)cc(F)cc2[nH]1 [Example 5, N—((S)-1-((4R,5'S)-5′-cyano-2-oxo-1,2-dihydrospiro[benzo[d][1,3]oxazine-4,3′-pyrrolidin]-1′-yl)-4-methyl-1-oxopentan-2-yl)-4,6-difluoro-N-methyl-1H-indole-2-carboxamide] | 200 to 2000 nM | – | – | > 1000 nM | > 10000 nM | 1000 to 10000 nM | > 1000 nM
10 | CC(C)C[C@@H](C(=O)N1C[C@@]2(C[C@H]1C#N)N=C(c1ccccc1)NC2=O)N(C)C(=O)c1cc2c(F)cc(F)cc2[nH]1 [Example 6, N-[(2S)-1-[(5R,8S)-8-cyano-4-oxo-2-phenyl-1,3,7-triazaspiro[4.4]non-1-en-7-yl]-4-methyl-1-oxopentan-2-yl]-4,6-difluoro-N-methyl-1H-indole-2-carboxamide] | < 20 nM | 100 to 1000 nM | – | > 1000 nM | > 10000 nM | 100 to 1000 nM | –
11 | CC(C)C[C@@H](C(=O)N1C[C@]2(C[C@H]1C#N)C(=O)Nc1c3ccccc3nn12)N(C)C(=O)[C@H](C)NC(=O)C(F)(F)F [Example 27, (2S)—N-[(2S)-1-[(3R,5'S)-5′-cyano-2-oxo-1H-spiro[imidazo[1,2-b]indazole-3,3′-pyrrolidin]-1′-yl]-4-methyl-1-oxopentan-2-yl]-N-methyl-2-(2,2,2-trifluoroacetamido)propanamide] | 20 to 200 nM | 1000 to 10000 nM | > 1000 nM | > 1000 nM | > 10000 nM | – | –
12 | CC(C)C[C@@H](C(=O)N1C[C@]2(CC(c3ccccc3)=NNC2=O)C[C@H]1C#N)N(C)C(=O)[C@H](C)NC(=O)C(F)(F)F [Example 29, (S)—N—((S)-1-((3S,5R)-3-cyano-6-oxo-9-phenyl-2,7,8-triazaspiro[4.5]dec-8-en-2-yl)-4-methyl-1-oxopentan-2-yl)-N-methyl-2-(2,2,2-trifluoroacetamido)propanamide] | 20 to 200 nM | 1000 to 10000 nM | – | > 1000 nM | > 10000 nM | 100 to 1000 nM | –
13 | CC(C)C[C@@H](C(=O)N1C[C@]2(CC(c3ccccc3)=NNC2=O)C[C@H]1C#N)N(C)C(=O)c1cc2c(F)cc(F)c(F)c2[nH]1 [Example 30, N—((S)-1-((3S,5R)-3-cyano-6-oxo-9-phenyl-2,7,8-triazaspiro[4.5]dec-8-en-2-yl)-4-methyl-1-oxopentan-2-yl)-4,6,7-trifluoro-N-methyl-1H-indole-2-carboxamide] | < 20 nM | 100 to 1000 nM | – | > 1000 nM | > 10000 nM | 100 to 1000 nM | –
14 | CN(C(=O)[C@H](CC1CC1)NC(=O)C(F)(F)F)[C@@H](CC1CC1)C(=O)N1C[C@]2(C[C@H]1C#N)C(=O)Nc1nccn12 [Example 31, (2S)—N-[(2S)-1-[(3R,5'S)-5′-cyano-2-oxo-1H-spiro[[1,3]diazolo[1,2-a]imidazole-3,3′-pyrrolidin]-1′-yl]-3-cyclopropyl-1-oxopropan-2-yl]-3-cyclopropyl-N-methyl-2-(2,2,2-trifluoroacetamido)propanamide] | 20 to 200 nM | – | > 1000 nM | > 1000 nM | > 10000 nM | – | > 10000 nM
15 | CC(C)C[C@@H](C(=O)N1C[C@]2(Cc3ccccc3NC2=O)C[C@H]1C#N)N(C)C(=O)[C@H](C)NC(=O)C(F)(F)F [Example 32, (S)—N—((S)-1-((3S,5S)-5-cyano-2′-oxo-1′,4′-dihydro-2′H-spiro[pyrrolidine-3,3′-quinolin]-1-yl)-4-methyl-1-oxopentan-2-yl)-N-methyl-2-(2,2,2-trifluoroacetamido)propanamide] | < 20 nM | 1000 to 10000 nM | – | > 1000 nM | > 10000 nM | 100 to 1000 nM | –
16 | CN(C(=O)[C@H](CC1CC1)NC(=O)C(F)(F)F)[C@@H](CC1CC1)C(=O)N1C[C@@]2(C[C@H]1C#N)Oc1cc(C#N)cc(F)c1NC2=O [Example 34, (S)-3-cyclopropyl-N—((S)-3-cyclopropyl-1-((2R,5'S)-5′,7-dicyano-5-fluoro-3-oxo-3,4-dihydrospiro[benzo[b][1,4]oxazine-2,3′-pyrrolidin]-1′-yl)-1-oxopropan-2-yl)-N-methyl-2-(2,2,2-trifluoroacetamido)propanamide] | < 20 nM | 100 to 1000 nM | – | > 1000 nM | > 10000 nM | 100 to 1000 nM | –
17 | CC(C)C[C@@H](C(=O)N1C[C@@]2(C[C@H]1C#N)Oc1cc(F)cc(F)c1NC2=O)N(C)C(=O)[C@H](CC1CC1)NC(=O)C(F)(F)F [Example 36, (S)—N—((S)-1-((2R,5'S)-5′-cyano-5,7-difluoro-3-oxo-3,4-dihydrospiro[benzo[b][1,4]oxazine-2,3′-pyrrolidin]-1′-yl)-4-methyl-1-oxopentan-2-yl)-3-cyclopropyl-N-methyl-2-(2,2,2-trifluoroacetamido)propanamide] | < 20 nM | < 100 nM | – | > 1000 nM | > 10000 nM | 100 to 1000 nM | –
